Laboratory results published in patent US10800791B2, “Triazole ACC inhibitors and uses thereof” (Gilead Apollo, LLC, priority 2015, dated 2020).
≈ marks a conversion by molar mass, not a printed value. Like-named read-outs stand apart in the source and are kept apart here.

What was measured:
C. albicans = test: Antifungal Activity Assay (broth microtiter MIC), C. albicans; assay type: cell-based, Candida albicans; settings: Candida albicans, ATCC90028, 48 h
Procedure, shortened: (§1)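 Susceptibility was determined by CLSI M27-A3 broth microdilution in RPMI 1640 buffered with MOPS. Growth inhibition was scored visually after 48 h.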

Rhizoctonia solani (Rs) = test: Growth inhibition assay of fungal pathogens, Rs; assay type: cell-based; settings: 48 h
C. krusei = test: Antifungal Activity Assay (broth microtiter MIC), C. krusei; assay type: cell-based, Candida krusei; settings: Pichia kudriavzevii, ATCC6258, 48 h
Procedure, shortened: as §1

[1] = test system: Collectotrichum graminicola (Cg); test: Growth inhibition assay of fungal pathogens, Cg; assay type: cell-based; settings: 48 h, growth inhibition at 48 hours vs 2% DMSO control
Procedure, shortened: (§2)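 Pathogen growth in 17% V8 broth is measured by OD600 at 24 and 48 hours, after blank subtraction, in the presence of compound at 50, 10 and 2 ppm or 2, 0.4 and 0.08 ppm. Inhibition in percent comes from 48-hour readings against the DMSO control.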

fungal (fACC2) = fungal (fACC2) (UniProt Q00955); settings: read-out: fACC2 (in vitro ACC2 Inhibition Assay, IC50); Table 2b, additional results; ADP-Glo, 5 nM ACC2, 20 μM ATP, 20 μM acetyl-CoA
Chain of fungal (fACC2) (Q00955 whole entry): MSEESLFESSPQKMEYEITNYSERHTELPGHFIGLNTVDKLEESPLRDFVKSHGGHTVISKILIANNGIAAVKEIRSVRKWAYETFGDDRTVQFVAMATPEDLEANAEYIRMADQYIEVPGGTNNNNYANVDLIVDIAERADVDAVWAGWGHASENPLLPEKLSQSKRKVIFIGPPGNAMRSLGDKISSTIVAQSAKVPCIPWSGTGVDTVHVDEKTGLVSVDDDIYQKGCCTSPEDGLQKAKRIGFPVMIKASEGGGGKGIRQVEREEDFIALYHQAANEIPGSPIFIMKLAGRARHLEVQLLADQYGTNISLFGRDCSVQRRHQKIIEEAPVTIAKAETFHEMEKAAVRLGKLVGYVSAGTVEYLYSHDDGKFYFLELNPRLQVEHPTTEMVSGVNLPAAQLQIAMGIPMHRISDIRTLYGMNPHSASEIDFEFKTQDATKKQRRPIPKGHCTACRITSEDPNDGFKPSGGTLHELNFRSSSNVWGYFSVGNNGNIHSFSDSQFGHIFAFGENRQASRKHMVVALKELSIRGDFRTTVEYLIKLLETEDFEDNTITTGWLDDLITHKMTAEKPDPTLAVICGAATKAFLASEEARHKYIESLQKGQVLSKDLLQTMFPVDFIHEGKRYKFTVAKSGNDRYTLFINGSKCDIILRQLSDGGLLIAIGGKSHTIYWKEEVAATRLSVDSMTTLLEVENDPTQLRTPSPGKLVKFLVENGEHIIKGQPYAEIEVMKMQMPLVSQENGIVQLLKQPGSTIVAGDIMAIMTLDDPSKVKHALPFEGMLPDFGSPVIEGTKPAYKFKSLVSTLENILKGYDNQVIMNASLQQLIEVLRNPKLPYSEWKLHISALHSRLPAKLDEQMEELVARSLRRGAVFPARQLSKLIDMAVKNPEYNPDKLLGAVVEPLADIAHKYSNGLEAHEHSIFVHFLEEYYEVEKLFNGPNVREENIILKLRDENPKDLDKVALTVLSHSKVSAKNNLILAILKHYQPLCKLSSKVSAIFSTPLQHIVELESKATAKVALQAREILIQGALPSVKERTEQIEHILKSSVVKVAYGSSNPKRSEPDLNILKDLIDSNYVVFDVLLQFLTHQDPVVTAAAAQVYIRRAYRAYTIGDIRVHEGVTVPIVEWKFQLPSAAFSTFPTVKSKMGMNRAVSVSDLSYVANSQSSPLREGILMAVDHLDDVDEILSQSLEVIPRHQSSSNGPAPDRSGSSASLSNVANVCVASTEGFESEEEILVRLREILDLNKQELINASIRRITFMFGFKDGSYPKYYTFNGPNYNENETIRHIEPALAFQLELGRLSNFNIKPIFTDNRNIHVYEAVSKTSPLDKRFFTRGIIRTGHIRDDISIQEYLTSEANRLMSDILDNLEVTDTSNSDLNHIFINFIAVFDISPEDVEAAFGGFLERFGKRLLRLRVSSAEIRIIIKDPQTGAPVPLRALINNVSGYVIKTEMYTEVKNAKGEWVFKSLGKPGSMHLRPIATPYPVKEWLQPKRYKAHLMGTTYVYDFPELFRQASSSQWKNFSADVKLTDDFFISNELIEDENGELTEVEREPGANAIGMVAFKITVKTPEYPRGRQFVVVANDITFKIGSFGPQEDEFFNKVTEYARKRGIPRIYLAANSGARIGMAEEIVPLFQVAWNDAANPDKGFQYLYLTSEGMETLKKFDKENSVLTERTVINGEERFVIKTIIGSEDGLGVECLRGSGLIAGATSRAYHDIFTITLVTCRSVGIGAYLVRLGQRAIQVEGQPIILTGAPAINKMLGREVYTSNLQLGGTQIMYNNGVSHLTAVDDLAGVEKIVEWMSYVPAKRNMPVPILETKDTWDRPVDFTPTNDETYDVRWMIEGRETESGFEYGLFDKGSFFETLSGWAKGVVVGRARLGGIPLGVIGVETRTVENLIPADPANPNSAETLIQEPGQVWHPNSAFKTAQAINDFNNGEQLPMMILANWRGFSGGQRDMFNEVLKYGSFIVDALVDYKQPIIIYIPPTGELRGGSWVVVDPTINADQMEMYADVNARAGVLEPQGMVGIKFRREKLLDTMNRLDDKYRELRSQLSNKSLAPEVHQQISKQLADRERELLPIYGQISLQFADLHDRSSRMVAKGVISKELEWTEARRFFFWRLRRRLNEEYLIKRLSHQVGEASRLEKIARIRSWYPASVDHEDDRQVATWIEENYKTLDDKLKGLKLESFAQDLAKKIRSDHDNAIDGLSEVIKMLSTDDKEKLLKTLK

[2] = test system: Fusarium moniliforme (Fm); test: Growth inhibition assay of fungal pathogens, Fm; assay type: cell-based; settings: Fusarium verticillioides, 48 h, read-out: Concentration at 90% Inhibition Fm
Procedure, shortened: as §2

human (hACC2) = human (hACC2) (Homo sapiens, UniProt O00763); test: In vitro ACC inhibition assay (ADP-Glo), hACC2; assay type: biochemical; settings: Table 2b, additional results, 5 nM ACC2, 20 μM ATP, 20 μM acetyl-CoA
Chain of human (hACC2) (O00763 whole entry): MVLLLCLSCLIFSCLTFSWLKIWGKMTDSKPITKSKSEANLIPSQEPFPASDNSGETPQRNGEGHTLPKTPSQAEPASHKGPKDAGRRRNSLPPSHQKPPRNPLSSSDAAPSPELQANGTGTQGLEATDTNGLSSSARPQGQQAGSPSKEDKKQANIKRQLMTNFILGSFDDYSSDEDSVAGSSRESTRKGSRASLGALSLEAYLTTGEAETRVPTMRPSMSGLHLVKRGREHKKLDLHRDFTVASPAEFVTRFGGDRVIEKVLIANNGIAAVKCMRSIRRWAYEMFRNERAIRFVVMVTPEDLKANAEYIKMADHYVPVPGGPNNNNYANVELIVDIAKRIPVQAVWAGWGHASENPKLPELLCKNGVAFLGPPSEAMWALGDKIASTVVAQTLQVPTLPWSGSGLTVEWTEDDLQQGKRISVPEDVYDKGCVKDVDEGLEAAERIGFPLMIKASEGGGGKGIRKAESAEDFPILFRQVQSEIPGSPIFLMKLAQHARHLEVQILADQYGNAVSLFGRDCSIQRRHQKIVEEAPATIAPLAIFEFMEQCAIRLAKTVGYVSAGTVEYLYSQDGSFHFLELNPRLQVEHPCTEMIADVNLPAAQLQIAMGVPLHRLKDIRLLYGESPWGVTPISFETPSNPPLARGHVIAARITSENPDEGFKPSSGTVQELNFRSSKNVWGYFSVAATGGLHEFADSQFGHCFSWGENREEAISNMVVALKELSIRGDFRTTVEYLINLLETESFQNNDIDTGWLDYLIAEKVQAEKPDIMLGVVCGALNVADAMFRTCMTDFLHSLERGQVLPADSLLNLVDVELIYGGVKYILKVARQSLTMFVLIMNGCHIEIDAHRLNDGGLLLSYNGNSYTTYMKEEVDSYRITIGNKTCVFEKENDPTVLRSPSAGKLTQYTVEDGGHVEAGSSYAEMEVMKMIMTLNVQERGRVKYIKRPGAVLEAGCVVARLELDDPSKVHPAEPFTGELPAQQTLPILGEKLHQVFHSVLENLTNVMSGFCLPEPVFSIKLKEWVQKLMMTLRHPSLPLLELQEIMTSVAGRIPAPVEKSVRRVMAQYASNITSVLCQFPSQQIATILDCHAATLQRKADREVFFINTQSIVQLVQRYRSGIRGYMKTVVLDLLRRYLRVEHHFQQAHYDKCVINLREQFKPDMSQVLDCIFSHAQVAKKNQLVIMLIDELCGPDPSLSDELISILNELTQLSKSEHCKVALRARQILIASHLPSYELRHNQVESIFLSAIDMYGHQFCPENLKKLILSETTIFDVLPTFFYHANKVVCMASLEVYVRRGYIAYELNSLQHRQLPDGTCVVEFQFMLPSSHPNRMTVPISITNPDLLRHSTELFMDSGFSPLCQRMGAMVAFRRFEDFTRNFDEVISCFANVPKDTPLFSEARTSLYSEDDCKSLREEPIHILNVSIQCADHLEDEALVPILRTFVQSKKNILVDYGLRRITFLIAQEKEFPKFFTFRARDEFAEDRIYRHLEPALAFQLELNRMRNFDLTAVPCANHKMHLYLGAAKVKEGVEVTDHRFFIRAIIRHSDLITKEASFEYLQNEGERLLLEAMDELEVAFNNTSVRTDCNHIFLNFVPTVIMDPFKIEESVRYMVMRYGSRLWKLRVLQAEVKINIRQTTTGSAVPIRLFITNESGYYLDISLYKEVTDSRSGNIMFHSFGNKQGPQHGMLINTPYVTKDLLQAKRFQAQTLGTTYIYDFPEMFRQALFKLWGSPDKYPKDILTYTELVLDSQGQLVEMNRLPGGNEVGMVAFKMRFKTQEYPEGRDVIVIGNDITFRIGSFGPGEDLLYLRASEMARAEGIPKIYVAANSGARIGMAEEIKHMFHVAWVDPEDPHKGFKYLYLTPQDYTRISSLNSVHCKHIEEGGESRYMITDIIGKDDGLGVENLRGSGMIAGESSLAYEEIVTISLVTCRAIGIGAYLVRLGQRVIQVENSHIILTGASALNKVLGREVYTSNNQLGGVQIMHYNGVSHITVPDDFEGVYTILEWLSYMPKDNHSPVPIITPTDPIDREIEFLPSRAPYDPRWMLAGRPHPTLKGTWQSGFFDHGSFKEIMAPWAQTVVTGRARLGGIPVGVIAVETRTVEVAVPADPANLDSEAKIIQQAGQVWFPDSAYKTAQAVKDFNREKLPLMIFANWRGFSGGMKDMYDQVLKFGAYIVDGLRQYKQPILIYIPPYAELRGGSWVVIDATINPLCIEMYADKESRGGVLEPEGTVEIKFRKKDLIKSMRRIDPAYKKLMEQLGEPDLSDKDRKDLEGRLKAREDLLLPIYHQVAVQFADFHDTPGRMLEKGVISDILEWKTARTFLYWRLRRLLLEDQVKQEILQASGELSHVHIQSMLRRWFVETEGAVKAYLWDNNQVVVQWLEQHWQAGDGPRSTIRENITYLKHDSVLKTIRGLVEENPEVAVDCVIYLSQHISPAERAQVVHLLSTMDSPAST
Description: The detailed procedure is as follows. […] 10 μL ADP glo reagent was added. […] 20 μL kinase detection reagent was added.

C. parapsilosis = test: Antifungal Activity Assay (broth microtiter MIC), C. parapsilosis; assay type: cell-based, Candida parapsilosis; settings: Lodderomyces parapsilosis, ATCC22019, 48 h
Procedure, shortened: as §1

[3] = test system: Phytophthora capsici (Pc); test: Growth inhibition assay of fungal pathogens, Pc; assay type: cell-based; settings: 48 h
Procedure, shortened: as §2

Botrtyis cinerea (Bc) = test: Growth inhibition assay of fungal pathogens, Bc; assay type: cell-based; settings: 48 h, growth inhibition at 48 hours vs 2% DMSO control
Procedure, shortened: as §2

Diplodia maydis (Dm) = test: Growth inhibition assay of fungal pathogens, Dm; assay type: cell-based; settings: Stenocarpella maydis, 48 h, growth inhibition at 48 hours vs 2% DMSO control
Procedure, shortened: as §2

Septoria tritici (St) = test: Growth inhibition assay of fungal pathogens, St; assay type: cell-based; settings: Zymoseptoria tritici, 48 h, growth inhibition at 48 hours vs 2% DMSO control
Procedure, shortened: as §2

[4] = test system: Fusarium virguliforme (Fv); test: Growth inhibition assay of fungal pathogens, Fv; assay type: cell-based; settings: 48 h
Procedure, shortened: as §2

[5] = Table 3b (additional results), ATCC 90028, 3 replicates, MIC recorded at 48 h, read-out: MIC, C. albicans ATCC 90028
[6] = mycelial plugs, growth inhibition at 48 hours vs 2% DMSO control, read-out: Concentration at 90% Inhibition Rs
[7] = Table 3b (additional results), ATCC 6258, 3 replicates, MIC recorded at 48 h, read-out: MIC, C. krusei ATCC 6258
[8] = Collectotrichum graminicola, read-out: Concentration at 90% Inhibition Cg
[9] = Fusarium moniliforme, growth inhibition at 48 hours vs 2% DMSO control
[10] = Table 3b (additional results), ATCC 22019, 3 replicates, MIC recorded at 48 h, read-out: MIC, C. parapsilosis ATCC 22019
[11] = growth inhibition at 48 hours vs 2% DMSO control, read-out: Concentration at 90% Inhibition Pc
[12] = Botrtyis cinerea, read-out: Concentration at 90% Inhibition Bc
[13] = Diplodia maydis, read-out: Concentration at 90% Inhibition Dm
[14] = Septoria tritici, read-out: Concentration at 90% Inhibition St
[15] = growth inhibition at 48 hours vs 2% DMSO control, read-out: Concentration at 90% Inhibition Fv
[16] = read-out: MIC, C. albicans ATCC 90028, Table 3b (additional results), 3 replicates, MIC recorded at 48 h
[17] = read-out: Concentration at 90% Inhibition Rs, Rhizoctonia solani, mycelial plugs, growth inhibition at 48 hours vs 2% DMSO control
[18] = read-out: MIC, C. krusei ATCC 6258, Table 3b (additional results), 3 replicates, MIC recorded at 48 h
[19] = read-out: Concentration at 90% Inhibition Cg, Collectotrichum graminicola
[20] = read-out: MIC, C. parapsilosis ATCC 22019, Table 3b (additional results), 3 replicates, MIC recorded at 48 h
[21] = read-out: Concentration at 90% Inhibition Pc, Phytophthora capsici, growth inhibition at 48 hours vs 2% DMSO control
[22] = read-out: Concentration at 90% Inhibition Bc, Botrtyis cinerea
[23] = read-out: Concentration at 90% Inhibition Dm, Diplodia maydis
[24] = read-out: Concentration at 90% Inhibition St, Septoria tritici
[25] = read-out: Concentration at 90% Inhibition Fv, Fusarium virguliforme, growth inhibition at 48 hours vs 2% DMSO control

SMILES	MIC (C. albicans; [5])	IC90 (Rhizoctonia solani (Rs); [6])	MIC (C. krusei; [7])	IC90 [1, 8]	IC50 (fungal (fACC2))	IC90 [2, 9]	IC50 (human (hACC2))	MIC (C. parapsilosis; [10])	IC90 [3, 11]	IC90 (Botrtyis cinerea (Bc); [12])	IC90 (Diplodia maydis (Dm); [13])	IC90 (Septoria tritici (St); [14])	IC90 [4, 15]	MIC (C. albicans; [16])	IC90 (Rhizoctonia solani (Rs); [17])	MIC (C. krusei; [18])	IC90 [1, 19]	IC90 [2]	MIC (C. parapsilosis; [20])	IC90 [3, 21]	also measured
CC(=O)Oc1ccccc1[C@H](Cn1c(=O)n(C(C)(C)C(=O)NC(C)C)c(=O)c2c(C)c(-n3nccn3)sc21)OCCC#N [Compound I-272]	1.01 to 2 µg/mL (≈ 1.66 to 3.29 µM)	2 µg/mL (≈ 3.29 µM)	1.01 to 2 µg/mL (≈ 1.66 to 3.29 µM)	2 µg/mL (≈ 3.29 µM)	0.3 to 1 nM	0.08 µg/mL (≈ 0.132 µM)	1 to 5 nM	1.01 to 2 µg/mL (≈ 1.66 to 3.29 µM)	> 50 µg/mL	2 µg/mL (≈ 3.29 µM)	10 µg/mL (≈ 16.5 µM)	> 50 µg/mL	0.4 µg/mL (≈ 0.658 µM)								
CCOC(=O)c1ccccc1[C@H](Cn1c(=O)n(C(C)(C)C(=O)NC(C)C)c(=O)c2c(C)c(-n3nccn3)sc21)OCCC#N [Compound I-275]					0.3 to 1 nM		> 40 nM							2.01 to 4 µg/mL (≈ 3.23 to 6.43 µM)	10 µg/mL (≈ 16.1 µM)	2.01 to 4 µg/mL (≈ 3.23 to 6.43 µM)	> 50 µg/mL	2 µg/mL (≈ 3.22 µM)	2.01 to 4 µg/mL (≈ 3.23 to 6.43 µM)	> 50 µg/mL	IC90 (Botrtyis cinerea (Bc); [22]): 10 µg/mL (≈ 16.1 µM); IC90 (Diplodia maydis (Dm); [23]): > 50 µg/mL; IC90 (Septoria tritici (St); [24]): > 50 µg/mL; IC90 [4, 25]: 2 µg/mL (≈ 3.22 µM)
CCc1ccc(F)cc1CCn1c(=O)n(C(C)(C)C(=O)NC(C)C)c(=O)c2c(C)c(-n3nccn3)sc21 [Compound I-276]					0.3 to 1 nM		5 to 10 nM							2.01 to 4 µg/mL (≈ 3.82 to 7.6 µM)	10 µg/mL (≈ 19 µM)	1.01 to 2 µg/mL (≈ 1.92 to 3.8 µM)	2 µg/mL (≈ 3.8 µM)	0.08 µg/mL (≈ 0.152 µM)	2.01 to 4 µg/mL (≈ 3.82 to 7.6 µM)	> 50 µg/mL	IC90 (Botrtyis cinerea (Bc); [22]): 2 µg/mL (≈ 3.8 µM); IC90 (Diplodia maydis (Dm); [23]): 2 µg/mL (≈ 3.8 µM); IC90 (Septoria tritici (St); [24]): > 50 µg/mL; IC90 [4, 25]: 0.08 µg/mL (≈ 0.152 µM)
Cc1c(-n2nccn2)sc2c1c(=O)n(C(C)(C)C(=O)NC(C)C)c(=O)n2CCc1cc(F)ccc1OCc1ccccc1 [Compound I-277]					1 to 5 nM		10 to 40 nM							1.01 to 2 µg/mL (≈ 1.67 to 3.31 µM)	> 50 µg/mL	1.01 to 2 µg/mL (≈ 1.67 to 3.31 µM)	> 50 µg/mL	2 µg/mL (≈ 3.31 µM)	1.01 to 2 µg/mL (≈ 1.67 to 3.31 µM)	> 50 µg/mL	IC90 (Botrtyis cinerea (Bc); [22]): > 50 µg/mL; IC90 (Diplodia maydis (Dm); [23]): > 50 µg/mL; IC90 (Septoria tritici (St); [24]): > 50 µg/mL; IC90 [4, 25]: 2 µg/mL (≈ 3.31 µM)
Cc1c(-n2nccn2)sc2c1c(=O)n(C(C)(C)C(=O)NC(C)C)c(=O)n2CCc1cc(F)ccc1CCCC#N [Compound I-278]	2.01 to 4 µg/mL (≈ 3.55 to 7.07 µM)	10 µg/mL (≈ 17.7 µM)	1.01 to 2 µg/mL (≈ 1.79 to 3.54 µM)	10 µg/mL (≈ 17.7 µM)	1 to 5 nM	0.4 µg/mL (≈ 0.707 µM)	10 to 40 nM	2.01 to 4 µg/mL (≈ 3.55 to 7.07 µM)	> 50 µg/mL	2 µg/mL (≈ 3.54 µM)	2 µg/mL (≈ 3.54 µM)	> 50 µg/mL	0.4 µg/mL (≈ 0.707 µM)								
Cc1c(-n2nccn2)sc2c1c(=O)n(C(C)(C)C(=O)NC(C)C)c(=O)n2CCc1cc(F)ccc1OC1CCOCC1 [Compound I-279]	2.01 to 4 µg/mL (≈ 3.36 to 6.68 µM)	10 µg/mL (≈ 16.7 µM)	2.01 to 4 µg/mL (≈ 3.36 to 6.68 µM)	10 µg/mL (≈ 16.7 µM)	0.3 to 1 nM	0.08 µg/mL (≈ 0.134 µM)	10 to 40 nM	1.01 to 2 µg/mL (≈ 1.69 to 3.34 µM)	> 50 µg/mL	2 µg/mL (≈ 3.34 µM)	> 50 µg/mL	> 50 µg/mL	0.08 µg/mL (≈ 0.134 µM)								
